Experimental data reported in publication PMC5867665, “Targeting Multiple Effector Pathways in Pancreatic Ductal Adenocarcinoma with a G-Quadruplex-Binding Small Molecule” (Journal of Medicinal Chemistry, 2018).

Experiments:
[1] = tested on: breast adenocarcinoma (MCF7); assay: 96 h SRB growth inhibition assay, MCF7; format: cell-based; conditions: Homo sapiens
Experimental: (§1) Compounds were screened with a 96 h SRB (sulforhodamine B) assay for their antiproliferative activity in a panel of human cancer cell lines comprising lung adenocarcinoma (A549), breast adenocarcinoma (MCF7), and PDAC (MIA PaCa-2 and PANC-1) cell lines, as well as a fetal lung fibroblast-like nononcogenic control cell line (WI-38) (Figure 1f). […] Gemcitabine is also active in these lines at low nanomolar levels, although less so in MIA PaCa-2 (IC50 19 ± 5 nM) and more so in BX-PC3 cells (6 ± 2 nM).
(§2) All cell lines were purchased from ATCC and maintained in appropriate medium supplemented with 10% fetal bovine serum (Invitrogen, UK), 2 mM L-glutamine (Invitrogen, Netherlands), and other components as specified by the suppliers. Cell lines were maintained at 37 °C, 5% CO2, and routinely passaged. Drugs were dissolved in H2O and filtered through 0.22 μm pore-size filter units (stock 10 mM) before addition to appropriate cell line media. Cellular growth inhibition was measured using the sulforhodamine B (SRB) assay in 96-well plates as described previously.[78] The 50% inhibitory concentrations (IC50) were determined by taking the mean absorbance at 540 nm for each drug concentration expressed as a percentage of the absorbance of untreated control wells.

[2] = tested on: PDAC PANC-1 cells; assay: 96 h SRB growth inhibition assay, PANC-1; format: cell-based; conditions: Homo sapiens
Experimental: as §1, §2

[3] = tested on: fetal lung fibroblast-like nononcogenic control cell line (WI-38); assay: 96 h SRB growth inhibition assay, WI-38; format: cell-based, human; conditions: Homo sapiens, WI-38; SMILES csv supplement; read-out: WI-30 IC50
Experimental: as §1, §2

[4] = tested on: MIA PaCa-2 pancreatic tumor xenograft; assay: Subcutaneous MIA PaCa-2 pancreatic tumor xenograft therapy study; format: in vivo; conditions: 15 mg/kg IV twice weekly for 28 days
Experimental: To determine if the in vitro activity of CM03 was paralleled in vivo, we explored the activity of CM03 in a mouse xenograft model of PDAC. We have previously reported that the maximum tolerated dosage (MTD) for intravenous (IV) administration of MM41 is 25 mg/kg.[33] CM03 was well tolerated, up to a dosage of 45–50 mg/kg, as judged by a dose-escalation MTD study. A therapeutic schedule of two CM03 intravenous (IV) doses was explored using a subcutaneous MIA PaCa-2 pancreatic tumor xenograft model derived from the human cell line used in the cell growth inhibition studies. A group size of eight CD-1 nude mice was used, and dosing was conducted at 10 and 15 mg/kg, each twice weekly, over a period of 4 weeks (28 days: 8 doses). Two further groups were given either MM41 or gemcitabine at 15 mg/kg and received the same dose regimen. […] IVIS imaging of treated mice was performed by taking account of the intrinsic fluorescence of CM03. […] Thus, in contrast to MM41 and gemcitabine, the higher-dose CM03 treatment results in a statistically significant (p < 0.001) antitumor effect, which persisted long after dosing had ceased, up to the termination of the xenograft experiment (62 days).
For therapy studies, female CD-1 nude mice (2–3 months old, weighing 20–25 g) were injected subcutaneously with 5 × 10^6 MIA PaCa-2 cells in the right flank (unsupplemented RPMI + Matrigel). When the tumors were established (approximately 13 days, mean size 0.05 cm^3), the mice were divided into five treatment groups with eight mice/group. The MM41 and CM03 samples were dissolved directly in saline to the required concentrations and administered IV. Tumor size was measured weekly by calliper using the π-based ellipsoid volume formula (length × width × height × π/6) every 3–4 days, and the mice were also weighed and examined at the same time to determine any signs of toxicity from the drug.
• Group 1:15 mg/kg of gemcitabine (Sigma), twice weekly dose. • Group 2:15 mg/kg of MM41, twice weekly dose. • Group 3:10 mg/kg of CM03, twice weekly dose. • Group 4:15 mg/kg of CM03, twice weekly dose. • Group 5: saline only, twice weekly dose.
The xenograft data was analyzed using Student’s t test (GraphPad Inc.). Responses were considered to be significant for those with probabilities (p) less than 5% (p < 0.05). Mice were culled if there was any sign of tumor ulceration, if tumor volume exceeded 1.5 cm^3, or if a weight loss over 20% of initial body weight was observed. Samples of liver, kidney, and spleen from each animal in the CM03 (15 mg/kg) and untreated control groups were excised at the end of the therapy experiment, then fixed in 10% neutral buffered formalin for at least 48 h prior to processing and paraffin embedding. Tissue slices were stained with hematoxylin and eosin and assessed visually for any obvious differences compared with controls, indicative of toxicity and tissue damage. For the imaging study mice were anesthetized using isoflurane and imaged using the IVIS preclinical imaging system from PerkinElmer. Images were captured after 4 h following intravenous administration of CM03 using Cy5.5 excitation for 5 s.

[5] = target: hERG (Homo sapiens, UniProt Q12809); assay: hERG liability (unpublished data)
[6] = Aqueous solubility and pH of the salt; format: physicochemical; conditions: formate salt
Source text: The synthetic approach to the trisubstituted series adapts previously published procedures to simplify purification and increase yields of both intermediates and final compounds (Scheme 1). 5,5-Dimethyl-1,3-dibromohydantoin was used for the regioselective bromination of the starting material, enabling more efficient and convenient purification. The separation of final products was achieved using column chromatography, giving a 26% overall yield for CM03.
CM03 was then converted to a mixed hydrochloride/formate salt in order to enhance its aqueous solubility. At a concentration of 5 mg/mL, the pH of the CM03 salt solution was 6.95.

[7] = tested on: MIA PaCa-2 pancreatic tumor xenograft; design: method as in PMID 26077929; conditions: cited from earlier work

Chain of hERG (Q12809 whole entry): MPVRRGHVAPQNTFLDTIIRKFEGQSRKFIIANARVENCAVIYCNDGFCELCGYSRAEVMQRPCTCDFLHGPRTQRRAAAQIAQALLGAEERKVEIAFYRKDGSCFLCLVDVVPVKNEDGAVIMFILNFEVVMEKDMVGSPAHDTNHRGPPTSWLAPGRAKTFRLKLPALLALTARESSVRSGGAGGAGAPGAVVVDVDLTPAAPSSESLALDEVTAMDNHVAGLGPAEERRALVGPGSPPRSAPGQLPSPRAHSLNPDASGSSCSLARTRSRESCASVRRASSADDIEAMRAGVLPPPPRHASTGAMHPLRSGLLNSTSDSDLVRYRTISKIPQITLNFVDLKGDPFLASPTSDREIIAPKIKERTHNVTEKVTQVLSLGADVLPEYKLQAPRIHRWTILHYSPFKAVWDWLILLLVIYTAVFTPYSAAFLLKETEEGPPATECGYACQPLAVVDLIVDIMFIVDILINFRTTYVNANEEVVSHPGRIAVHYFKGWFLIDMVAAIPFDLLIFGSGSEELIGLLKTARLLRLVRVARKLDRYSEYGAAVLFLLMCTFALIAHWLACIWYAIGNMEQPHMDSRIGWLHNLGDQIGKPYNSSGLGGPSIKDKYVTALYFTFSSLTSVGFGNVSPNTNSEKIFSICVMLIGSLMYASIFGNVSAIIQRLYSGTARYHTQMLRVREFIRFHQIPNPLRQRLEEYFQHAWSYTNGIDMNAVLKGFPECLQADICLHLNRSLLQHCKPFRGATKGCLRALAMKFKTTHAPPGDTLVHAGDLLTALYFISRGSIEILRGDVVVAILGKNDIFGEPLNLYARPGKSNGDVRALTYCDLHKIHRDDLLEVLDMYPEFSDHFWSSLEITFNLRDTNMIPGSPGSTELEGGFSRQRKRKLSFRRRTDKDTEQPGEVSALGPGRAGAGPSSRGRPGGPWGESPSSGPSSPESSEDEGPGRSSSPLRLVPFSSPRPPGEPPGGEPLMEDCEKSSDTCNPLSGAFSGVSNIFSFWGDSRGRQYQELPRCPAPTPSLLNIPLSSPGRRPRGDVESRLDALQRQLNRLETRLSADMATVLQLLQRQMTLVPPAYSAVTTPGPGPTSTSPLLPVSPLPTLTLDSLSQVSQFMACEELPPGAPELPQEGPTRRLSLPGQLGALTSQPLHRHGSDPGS

Compound: CN1CCN(CCCNc2cc3c4c(c(NCCCN5CCN(C)CC5)cc5c4c2C(=O)N(CCCN2CCOCC2)C5=O)C(=O)N(CCCN2CCOCC2)C3=O)CC1 [MM41, 4,9-bis((3-(4-methylpiperazin-1-yl)propyl)amino)-2,7-bis(3-morpholinopropyl)benzo[lmn][3,8]phenanthroline-1,3,6,8(2H,7H)-tetraone, reference compound]
- IC50 [1]: 70 ± 10 nM
- IC50 [2]: 3 ± 1 nM
- IC50 [3]: 230 ± 50 nM
- MTV ± SEM (Day 29) [4]: 0.05 ± 0.02 cm^3
- MTV ± SEM (Day 62) [4]: 0.26 ± 0.14 cm^3
- hERG liabilities [5]: neither MM41 nor CM03 show significant hERG liabilities
- water solubility [6]: freely water-soluble
- reduction of tumor volume in a PDAC xenograft model [7]: ~80%
